Data on eleven compounds can be found in PubChem BioAssay AID342 (DTP/NCI, 2004).

Several values for one entry are separate records, joined by “and”; a condition that tells them apart may be missing. Equal values may be shown once.

This assay deals with Swiss mice, Sarcoma 180 sc, mean tumor weight T/C. In words: NCI In Vivo Anticancer Drug Screen. Data for tumor model Sarcoma 180 (subcutaneous) in Swiss mice. The note with it: endpoint: mean tumor weight, higher = larger tumour. Put shortly:
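Mice bearing transplanted tumors were treated with compound, and survival or tumor size was measured. Values are expressed as the treated-group measurement (T) divided by the vehicle-treated control measurement (C).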

[1] abbreviates: dose: 30.0 mg/kg/injection, schedule: Q01DX007 (ip), vehicle: carboxymethylcellulose (CMC).
Where [2] appears, read: dose: 5.0 mg/kg/injection, schedule: Q01DX007 (ip), vehicle: carboxymethylcellulose (CMC).
[3] abbreviates: dose: 250.0 mg/kg/injection, schedule: Q01DX007 (ip), vehicle: carboxymethylcellulose (CMC).

In the case of `[Cl][Pt+2]([Cl])([Cl])[Cl].[Na+].[S-]c1ncnc2nc[nH]c12.[S-]c1ncnc2nc[nH]c12`, the T/C (dose: 1.1 mg/kg/injection, schedule: Q01DX007 (ip), vehicle: carboxymethylcellulose (CMC)) was 92 % of control; the T/C (dose: 10.0 mg/kg/injection, schedule: Q01DX007 (ip), vehicle: carboxymethylcellulose (CMC)) was 45 % of control; the T/C (dose: 19.0 mg/kg/injection, schedule: Q01DX007 (ip), vehicle: carboxymethylcellulose (CMC)) was 74 % of control; the T/C (dose: 20.0 mg/kg/injection, schedule: Q01DX007 (ip), vehicle: carboxymethylcellulose (CMC)) was 40 % of control; the T/C (dose: 22.0 mg/kg/injection, schedule: Q#A X014 (ip), vehicle: methylcellulose (MC)) was 47 % of control and 50 % of control; the T/C (dose: 22.2 mg/kg/injection, schedule: Q#A X014 (ip), vehicle: carboxymethylcellulose (CMC)) was 29 % of control. Moreover, the T/C reads like this: (dose: 29.0 mg/kg/injection, schedule: Q01DX007 (ip), vehicle: carboxymethylcellulose (CMC)) 43 % of control; under setting [1], 54 % of control; (dose: 33.3 mg/kg/injection, schedule: Q#A X014 (ip), vehicle: carboxymethylcellulose (CMC)) 24 % of control; (dose: 44.0 mg/kg/injection, schedule: Q01DX007 (ip), vehicle: carboxymethylcellulose (CMC)) 38 % of control and 41 % of control; (dose: 50.0 mg/kg/injection, schedule: Q#A X014 (ip), vehicle: carboxymethylcellulose (CMC)) 10 % of control; (dose: 50.0 mg/kg/injection, schedule: Q#A X014 (ip), vehicle: methylcellulose (MC)) 24 % of control and 44 % of control. Besides, the T/C (dose: 65.0 mg/kg/injection, schedule: Q01DX007 (ip), vehicle: carboxymethylcellulose (CMC)) was 28 % of control; the T/C (dose: 66.0 mg/kg/injection, schedule: Q01DX007 (ip), vehicle: carboxymethylcellulose (CMC)) was 57 % of control; the T/C (dose: 75.0 mg/kg/injection, schedule: Q#A X014 (ip), vehicle: carboxymethylcellulose (CMC)) was 7 % of control; the T/C (dose: 75.0 mg/kg/injection, schedule: Q#A X014 (ip), vehicle: methylcellulose (MC)) is 16 % of control and 34 % of control; the T/C (dose: 220.0 mg/kg/injection, schedule: Q01DX007 (ip), vehicle: carboxymethylcellulose (CMC)) was 11 % of control; the T/C (dose: 300.0 mg/kg/injection, schedule: Q01DX007 (ip), vehicle: carboxymethylcellulose (CMC)) is 1 % of control.
For the compound `O=C(O)O.[Cd]`, the T/C under setting [2] is 69 % of control.
Consider `O=CCC(O)C(O)C(O)CO` (stereo not given), for which the T/C reads like this: (dose: 125.0 mg/kg/injection, schedule: Q01DX007 (ip), vehicle: carboxymethylcellulose (CMC)) 86 % of control; under setting [3], 75 % of control; (dose: 500.0 mg/kg/injection, schedule: Q01DX007 (ip), vehicle: carboxymethylcellulose (CMC)) 76 % of control; (dose: 1000.0 mg/kg/injection, schedule: Q01DX007 (ip), vehicle: carboxymethylcellulose (CMC)) 67 % of control.
For `CCOC(=O)CCCc1ccc(N/N=N/c2nc[nH]c2C(N)=O)cc1`, the T/C (dose: 46.0 mg/kg/injection, schedule: Q01DX007 (ip), vehicle: carboxymethylcellulose (CMC)) is 79 % of control and 80 % of control; the T/C (dose: 187.0 mg/kg/injection, schedule: Q01DX007 (ip), vehicle: carboxymethylcellulose (CMC)) is 46 % of control; the T/C under setting [3] was 39 % of control.
In the case of `CCOC(=O)Nc1ccc2c(c1)/C(=N\NC(N)=S)c1ccccc1-2`, the T/C is 86 % of control under setting [2]; 44 % of control (dose: 15.0 mg/kg/injection, schedule: Q01DX007 (ip), vehicle: carboxymethylcellulose (CMC)); 55 % of control under setting [1]; 85 % of control (dose: 49.0 mg/kg/injection, schedule: Q01DX007 (ip), vehicle: carboxymethylcellulose (CMC)); 63 % of control (dose: 60.0 mg/kg/injection, schedule: Q01DX007 (ip), vehicle: carboxymethylcellulose (CMC)); 63 % of control (dose: 73.0 mg/kg/injection, schedule: Q01DX007 (ip), vehicle: carboxymethylcellulose (CMC)). Further, the T/C (dose: 110.0 mg/kg/injection, schedule: Q01DX007 (ip), vehicle: carboxymethylcellulose (CMC)) is 112 % of control.
For `NC(=O)c1[nH]cnc1/N=N/N1CCCC1`, the T/C (dose: 62.5 mg/kg/injection, schedule: Q#A X014 (ip), vehicle: carboxymethylcellulose (CMC)) is 73 % of control and the T/C (dose: 125.0 mg/kg/injection, schedule: Q#A X014 (ip), vehicle: carboxymethylcellulose (CMC)) is 107 % of control.
As to `Cc1cc2nc3c(=O)[nH]c(=O)nc-3n(CCOC(=O)CCC(=O)O)c2cc1C`, the T/C reads like this: (dose: 14.37 mg/kg/injection, schedule: Q#A X014 (ip), vehicle: carboxymethylcellulose (CMC)) 109 % of control; (dose: 28.75 mg/kg/injection, schedule: Q#A X014 (ip), vehicle: carboxymethylcellulose (CMC)) 122 % of control; (dose: 57.5 mg/kg/injection, schedule: Q#A X014 (ip), vehicle: carboxymethylcellulose (CMC)) 87 % of control; (dose: 115.0 mg/kg/injection, schedule: Q#A X014 (ip), vehicle: carboxymethylcellulose (CMC)) 56 % of control.
As to `NC(=O)CCC(NC(=O)c1ccc([N+](=O)[O-])cc1)C(=O)O` (stereo not given), the T/C is 69 % of control (dose: 62.5 mg/kg/injection, schedule: Q01DX007 (ip), vehicle: other); 50 % of control (dose: 125.0 mg/kg/injection, schedule: Q01DX007 (ip), vehicle: other); 63 % of control (dose: 250.0 mg/kg/injection, schedule: Q01DX007 (ip), vehicle: other).
As to `C/C=C1\CN(C)[C@H]2Cc3c([nH]c4ccccc34)[C@@H](c3cc4[nH]c5c(c4cc3OC)CCN3C[C@H]4C[C@H](CC)[C@H]3[C@@]5(C(=O)OC)C4)C[C@H]1C2C(=O)OC` (stereo not given in full), the T/C is, setting by setting: (dose: 35.0 mg/kg/injection, schedule: Q01DX007 (ip), vehicle: water) 58 % of control; (dose: 50.0 mg/kg/injection, schedule: Q01DX007 (ip), vehicle: water) 74 % of control and 90 % of control; (dose: 70.0 mg/kg/injection, schedule: Q01DX007 (ip), vehicle: water) 38 % of control and 59 % of control; (dose: 90.0 mg/kg/injection, schedule: Q01DX007 (ip), vehicle: water) 30 % of control.
For the compound `C[C@]12CC[C@@H]3c4ccc(OC5CCCCO5)cc4CC[C@H]3[C@@H]1CC[C@@H]2O` (stereo not given in full), the T/C is 55 % of control (dose: 111.0 mg/kg/injection, schedule: Q01DX007 (ip), vehicle: steriod suspending solution); 20 % of control (dose: 166.6 mg/kg/injection, schedule: Q01DX007 (ip), vehicle: steriod suspending solution); 24 % of control (dose: 250.0 mg/kg/injection, schedule: Q01DX007 (ip), vehicle: steriod suspending solution); 17 % of control (dose: 375.0 mg/kg/injection, schedule: Q01DX007 (ip), vehicle: steriod suspending solution).
With `CN(Cc1cnc2nc(N)nc(N)c2n1)c1ccc(C(=O)N[C@@H](CCC(=O)O)C(=O)O)cc1`, the T/C reads like this: (dose: 0.12 mg/kg/injection, schedule: Q01DX007 (ip), vehicle: water) 101 % of control; (dose: 0.12 mg/kg/injection, schedule: Q#A X014 (ip), vehicle: carboxymethylcellulose (CMC)) 123 % of control; (dose: 0.25 mg/kg/injection, schedule: Q01DX007 (ip), vehicle: water) 57 % of control; (dose: 0.25 mg/kg/injection, schedule: Q#A X014 (ip), vehicle: carboxymethylcellulose (CMC)) 121 % of control; (dose: 0.5 mg/kg/injection, schedule: Q01DX007 (ip), vehicle: carboxymethylcellulose (CMC)) 95 % of control and 110 % of control; (dose: 0.5 mg/kg/injection, schedule: Q#A X014 (ip), vehicle: carboxymethylcellulose (CMC)) 73 % of control. Also, the T/C by setting is: (dose: 0.76 mg/kg/injection, schedule: Q01DX007 (ip), vehicle: carboxymethylcellulose (CMC)) 119 % of control; (dose: 1.0 mg/kg/injection, schedule: Q01DX007 (ip), vehicle: carboxymethylcellulose (CMC)) 107 % of control; (dose: 1.26 mg/kg/injection, schedule: Q01DX007 (ip), vehicle: carboxymethylcellulose (CMC)) 68 % of control; (dose: 1.5 mg/kg/injection, schedule: Q01DX007 (ip), vehicle: carboxymethylcellulose (CMC)) 78 % of control and 86 % of control; (dose: 1.9 mg/kg/injection, schedule: Q01DX007 (ip), vehicle: carboxymethylcellulose (CMC)) 68 % of control; (dose: 237.0 micrograms/kg/injection, schedule: Q01DX007 (ip), vehicle: carboxymethylcellulose (CMC)) 105 % of control. For the same compound, the T/C was 104 % of control (dose: 475.0 micrograms/kg/injection, schedule: Q01DX007 (ip), vehicle: carboxymethylcellulose (CMC)); 83 % of control (dose: 950.0 micrograms/kg/injection, schedule: Q01DX007 (ip), vehicle: carboxymethylcellulose (CMC)); 32 % of control (dose: 1900.0 micrograms/kg/injection, schedule: Q01DX007 (ip), vehicle: carboxymethylcellulose (CMC)).

What is called T/C is the result in the treated group divided by that in the control group, in per cent.
